Results published in patent US8383637B2, “2-amino-quinazoline derivatives useful as inhibitors of β-secretase (BACE)” (Jansssen Pharmaceutica N.V., priority 2004, dated 2013).
“And” between values parts separate entries of the source, which are not always exact repeats. Equal values may be shown once. Read-outs that look alike come from different tables or passages of the source.

How the values were obtained:
Format in all cases: biochemical
[1] = molecular target: T1, β-secretase(BACE) (Homo sapiens, UniProt P56817); assay: BACE FS1% Inhibition Assay; settings: FS1 substrate; for % Inhibition (FS) 0.3 μM / inhibition at 0.3 µM: 0.3 μM test compound; for % Inhibition (FS) 1 μM / inhibition at 1 µM: 1 μM test compound; for % Inhibition (FS) 3 μM / inhibition at 3 µM: 3 μM test compound; for inhibition at 0.3 µM: read-out: % Inhibition (FS) 0.3 μM; for inhibition at 1 µM: read-out: % Inhibition (FS) 1 μM; for inhibition at 3 µM: read-out: % Inhibition (FS) 3 μM; for inhibition at 10 µM: read-out: % Inhibition (FS) 10 μM
T1 construct: purchased Panvera
T1 sequence (P56817 46-501): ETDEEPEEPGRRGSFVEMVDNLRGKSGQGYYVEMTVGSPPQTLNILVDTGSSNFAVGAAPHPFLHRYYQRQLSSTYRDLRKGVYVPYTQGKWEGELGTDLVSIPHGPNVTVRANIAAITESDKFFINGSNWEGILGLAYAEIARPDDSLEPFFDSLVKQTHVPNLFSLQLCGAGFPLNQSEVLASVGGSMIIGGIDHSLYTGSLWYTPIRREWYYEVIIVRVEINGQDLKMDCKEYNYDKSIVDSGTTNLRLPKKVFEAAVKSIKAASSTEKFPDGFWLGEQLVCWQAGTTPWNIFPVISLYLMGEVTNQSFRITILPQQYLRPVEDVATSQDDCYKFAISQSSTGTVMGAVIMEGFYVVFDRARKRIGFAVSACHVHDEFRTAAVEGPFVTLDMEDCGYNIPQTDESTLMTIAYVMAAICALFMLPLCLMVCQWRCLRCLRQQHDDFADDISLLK
Method in brief: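 Percent inhibition at each tested concentration, referenced to enzyme-free blank and vehicle-only positive control. Reaction: compound and BACE (4 μg/mL working stock) mixed 20 min at room temperature before FS1 substrate (300 μg/mL working stock), then 1 h at room temperature.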

[2] = molecular target: T1, β-secretase(BACE); assay: BACE Assay-1 (MCA-substrate, IC50)
Procedure: The following standards are reagents were used in this assay: Sodium Citrate trisodium salt dihydrate (Sigma), Citric Acid monohydrate (Merck), PEG8000 (Sigma), MCA-substrate (Bachem), β-secretase (BACE) (Panvera), 96-well plate zwart (Costar (Elscolab)), StatVal (Bachem).
The following standard assay buffer solution was prepared and used in this assay: 0.05 M, pH 5.0 mixture of sodium citrate trisodium salt dihydrate (9.56 g), citric acid monohydrate (3.68 g) and PEG8000 (0.50 g).
The MCA-substrate stock solution was prepared by mixing 10 mg MCA-substrate with 5 mL DMSO for a final solution concentration of 2.0 mg/mL. The substrate work solution was prepared by mixing 0.1 mL substrate in 1.90 mL assay buffer for a final concentration of 0.05 mM. The β-secretase (BACE) work solution was prepared by mixing 8 μL BACE in 2 mL assay buffer for a final concentration of 10 μg/mL.
The screen procedure for this assay was as follows. 60 μL of assay buffer was pippeted into each well of a 96-well plate. To each well was then pipetted 1 μL of test compound at the selected concentration. To each well was then added 20 μL of the β-secretase work solution and 20 μL of the MCA-substrate stock solution.
The procedure for the blank was as follows. 80 μL of assay buffer was pipetted into each well to be used as a blank control. To each well was then added 1 μL of DMSO and 20 μL of MCA-substrate solution in each well.
The procedure for the positive control was as follows. 60 μL of assay buffer was pipetted into each well to be used as a positive control. To each well was then added 1 μL of DMSO, 20 μL of BACE work solution and 20 μL of MCA-substrate stock solution.
For test compounds, measured at multiple concentrations, the measured T0 and T60 values were used to calculate an IC50 value using Graphpad Software (or PIR).

[3] = molecular target: T1, β-secretase(BACE); assay: BACE Assay-2 (FS1 substrate, IC50 and Ki); settings: procedure of Example 159, FS1 substrate
[4] = procedure of Example 158, read-out: IC50 μM (158)

| SMILES | IC50 [2, 4] [µM] | Ki ([3]; read-out: Ki μM (159)) [µM] | inhibition at 0.3 µM [1] [%] | inhibition at 1 µM [1] [%] | inhibition at 3 µM [1] [%] | also measured |
| --- | --- | --- | --- | --- | --- | --- |
| NC1=Nc2ccc(Oc3ccccc3)cc2CN1C(CNC(=O)CC1CCCC1)C1CCCCC1 (stereo not drawn) [Compound 311] | 0.02 | 0.05 |  |  |  | % Inhibition (FS) 0.3 μM [1]: 74%; % Inhibition (FS) 1 μM [1]: 108%; % Inhibition (FS) 3 μM [1]: 118% |
| NC1=Nc2ccc(Oc3ccccc3)cc2CN1CCNC(=O)C1CC1 [Compound 123] | 1.2 | 0.3 |  |  | 71 | inhibition at 10 µM ([1]; 10 μM test compound): 116% |
| CCOc1ccccc1-c1ccc2c(c1)CN(Cc1cccc(C(=O)N(C)C3CCCCC3)c1)C(N)=N2 [Compound 329] | 0.012 | 0.02 | 92 | 109 | 118 |  |
| CN(C(=O)c1cccc(CN2Cc3cc(Sc4ccccc4)ccc3N=C2N)c1)C1CCCCC1 [Compound 476] | 0.067 | 0.28 | 19.9 | 66 | 102 |  |
| NC1=Nc2ccc(Oc3ccccc3)cc2CN1CCC(=O)NC1C2CC3CC(C2)CC1C3 (stereo not drawn) [Compound 221, N-Adamantan-2-yl-3-(2-amino-6-phenoxy-4H-quinazolin-3-yl) propionamide] | 0.011 |  | 100 | 115 | 118 | % Inhibition (FS) 0.3 μM ([1]; 0.3 µM): 110%; % Inhibition (FS) 1 μM ([1]; 1 µM): 119%; % Inhibition (FS) 3 μM ([1]; 3 µM): 121%; IC50 [2]: 0.023 µM; Ki ([3]; Ki μM (159)): 0.025 µM and 0.029 µM |
| COc1ccccc1-c1ccc2c(c1)CN(C(CCC(=O)N(C)C1CCCCC1)C1CCCCC1)C(N)=N2 (stereo not drawn) [Compound 227] | 0.043 | 0.065 | 86 | 109 | 116 |  |
| CC(C)C(=O)NCC(C1CCCCC1)N1Cc2cc(Oc3ccccc3)ccc2N=C1N (stereo not drawn) [Compound 301] | 0.15 | 0.21 |  |  |  | % Inhibition (FS) 0.3 μM [1]: <30%; % Inhibition (FS) 1 μM [1]: 82%; % Inhibition (FS) 3 μM [1]: 106% |
| CCCC(CCCC(=O)N(C)C1CCN(C)CC1)N1Cc2cc(Oc3ccccc3)ccc2N=C1N (stereo not drawn) [Compound 106] | 0.15 | 0.23 |  |  |  | % Inhibition (FS) 3 μM [1]: 103%; % Inhibition (FS) 10 μM ([1]; 10 μM test compound): 114% |
| CC(C)[C@H](CCC(=O)N(C)C1CCCCC1)N1Cc2cc(Oc3ccccc3)ccc2N=C1N [Compound 450] | 0.011 | 0.019 | 97 | 112 | 121 |  |
| CC(C)OC(=O)NCCN1Cc2cc(Oc3ccccc3)ccc2N=C1N [Compound 220, [2-(2-Amino-6-phenoxy-4H-quinazolin-3-yl)-ethyl]-carbamic acid isopropyl ester] | 0.45 | 0.2 | 103 | 72 | 102 |  |
| CCCCC(CC)C(=O)NCCN1Cc2cc(Oc3ccccc3)ccc2N=C1N (stereo not drawn) [Compound 122] | 0.19 | 0.17 |  |  | 101 | inhibition at 10 µM ([1]; 10 μM test compound): 123% |
| CC(C)(C)C(=O)NCCN1Cc2cc(Oc3ccccc3)ccc2N=C1N [Compound 141] | 0.15 | 0.08 |  |  | 100 | inhibition at 10 µM ([1]; 10 μM test compound): 102% |
| CCCCC(CC)C(=O)NCC(C1CCCCC1)N1Cc2cc(Oc3ccccc3)ccc2N=C1N (stereo not drawn) [Compound 303] | 0.062 | 0.24 | < 30 | 70 | 109 |  |
| CN(C(=O)c1cccc(CN2Cc3cc(-c4cccc5ccccc45)ccc3N=C2N)c1)C1CCCCC1 [Compound 330] | 0.048 | 0.21 | < 30 | 66 | 114 |  |
| NC1=Nc2ccc(Oc3ccccc3)cc2CN1CCNC(=O)NC1CCCCC1 [Compound 215] | 0.23 | 0.4 | 39 | 71 | 106 |  |
| NC1=Nc2ccc(Oc3ccccc3)cc2CN1CCNC(=S)NC12CC3CC(CC(C3)C1)C2 [Compound 214, 1-Adamantan-1-yl-3-[2-(2-amino-6-phenoxy-4H-quinazolin-3-yl)-ethyl]-thiourea] | 0.19 | 0.1 | < 30 | 70 | 101 |  |
| CCCCS(=O)(=O)NCCN1Cc2cc(Oc3ccccc3)ccc2N=C1N [Compound 135, Butane-1-sulfonic acid [2-(2-amino-6-phenoxy-4H-quinazolin-3-yl)-ethyl]-amide] | 0.89 | 0.29 |  |  | 89 | inhibition at 10 µM ([1]; 10 μM test compound): 118% |

Further lines, with some results ahead:

| IC50 [2, 4] [µM] | Ki ([3]; read-out: Ki μM (159)) [µM] | inhibition at 0.3 µM [1] [%] | inhibition at 1 µM [1] [%] | inhibition at 3 µM [1] [%] | SMILES | also measured |
| --- | --- | --- | --- | --- | --- | --- |
| 0.14 | 0.074 | 46 | 85 | 111 | CN(CCN1Cc2cc(Oc3ccccc3)ccc2N=C1N)C(=O)OC(C)(C)C [Compound 425, [2-(2-Amino-6-phenoxy-4H-quinazolin-3-yl)-ethyl]-methyl-carbamic acid tert-butyl ester] |  |
| 0.89 | 0.28 | 34 | 65 | 92 | Cc1noc(C)c1-c1ccc2c(c1)CN(Cc1cccc(C(=O)N(C)C3CCCCC3)c1)C(N)=N2 [Compound 159] |  |
| 0.023 | 0.06 | 98 | 113 | 114 | CN(C(=O)c1cccc(CN2Cc3cc(-c4ccccc4)ccc3N=C2N)c1)C1CCCCC1 [Compound 138] |  |
| 0.15 | 0.21 | 53 | 86 | 112 | CN(C(=O)c1cccc(CN2Cc3cc(-c4ccccc4Cl)ccc3N=C2N)c1)C1CCCCC1 [Compound 260] |  |
| 0.39 | 0.33 |  |  |  | CC(C)(C)OC(=O)NCC(c1ccccc1)N1Cc2cc(Oc3ccccc3)ccc2N=C1N (stereo not drawn) [Compound 258] | % Inhibition (FS) 0.3 μM [1]: <30%; % Inhibition (FS) 1 μM [1]: 46%; % Inhibition (FS) 3 μM [1]: 72% |
| 0.58 | 0.32 |  |  | 103 | CC(C)C(=O)NCCN1Cc2cc(Oc3ccccc3)ccc2N=C1N [Compound 121] | inhibition at 10 µM ([1]; 10 μM test compound): 117% |
| 0.089 | 0.19 | < 30 | 60 | 108 | CN(C(=O)c1cccc(CN2Cc3cc(-c4ccccc4Br)ccc3N=C2N)c1)C1CCCCC1 [Compound 331] |  |
| 0.45 | 0.21 |  |  | 101 | NC1=Nc2ccc(Oc3ccccc3)cc2CN1CCNC(=O)C1CCC1 [Compound 130] | inhibition at 10 µM ([1]; 10 μM test compound): 123% |
| 0.36 | 0.26 | 38 | 44 | 93 | COc1ccccc1-c1ccc2c(c1)CN(CCNC(=O)C1CCCCC1)C(N)=N2 [Compound 487] | % Inhibition (FS) 0.3 μM ([1]; 0.3 µM): <30%; % Inhibition (FS) 1 μM ([1]; 1 µM): 32%; % Inhibition (FS) 3 μM ([1]; 3 µM): 95% |
| 0.018 | 0.011 | 112 | 119 | 129 | CC(C)CCC(=O)NC[C@@H](C(C)C)N1Cc2cc(Oc3ccccc3)ccc2N=C1N [Compound 564] |  |
| 0.13 | 0.1 | 75 | 101 | 114 | CC1CCCCC1C(=O)NCCN1Cc2cc(Oc3ccccc3)ccc2N=C1N (stereo not drawn) [Compound 218] |  |
| 0.062 | 0.23 |  |  | 107 | CCC(c1cccc(C(=O)N(C)C2CCCCC2)c1)N1Cc2cc(Oc3ccccc3)ccc2N=C1N (stereo not drawn) [Compound 204, 3-[1-(2-Amino-6-phenoxy-4H-quinazolin-3-yl)-propyl]-N-cyclohexyl-N-methyl-benzamide] | % Inhibition (FS) 0.3 μM ([1]; 0.3 µM): <30% and 54%; % Inhibition (FS) 1 μM ([1]; 1 µM): 66% and 97%; % Inhibition (FS) 3 μM ([1]; 3 µM): 115% |
| 0.079 | 0.27 |  |  | 109 | CN(C(=O)CCCCN1Cc2cc(Oc3cccc(NS(=O)(=O)c4ccccc4)c3)ccc2N=C1N)C1CCCCC1 [Compound 114] | inhibition at 10 µM ([1]; 10 μM test compound): 126% |
